This note sets out measurements from patent publication US20230139171A1 (SITA Information Networking Computing UK Limited, priority 2019, published 2023).

The structures appear in SMILES notation.

What all share (type): cell-based
Assay [1] concerns the target T1, human TLR9 (Homo sapiens, UniProt Q9NR96).
T1 construct: host or cells: HEK-Blue cells
T1 sequence (Q9NR96 26-1032): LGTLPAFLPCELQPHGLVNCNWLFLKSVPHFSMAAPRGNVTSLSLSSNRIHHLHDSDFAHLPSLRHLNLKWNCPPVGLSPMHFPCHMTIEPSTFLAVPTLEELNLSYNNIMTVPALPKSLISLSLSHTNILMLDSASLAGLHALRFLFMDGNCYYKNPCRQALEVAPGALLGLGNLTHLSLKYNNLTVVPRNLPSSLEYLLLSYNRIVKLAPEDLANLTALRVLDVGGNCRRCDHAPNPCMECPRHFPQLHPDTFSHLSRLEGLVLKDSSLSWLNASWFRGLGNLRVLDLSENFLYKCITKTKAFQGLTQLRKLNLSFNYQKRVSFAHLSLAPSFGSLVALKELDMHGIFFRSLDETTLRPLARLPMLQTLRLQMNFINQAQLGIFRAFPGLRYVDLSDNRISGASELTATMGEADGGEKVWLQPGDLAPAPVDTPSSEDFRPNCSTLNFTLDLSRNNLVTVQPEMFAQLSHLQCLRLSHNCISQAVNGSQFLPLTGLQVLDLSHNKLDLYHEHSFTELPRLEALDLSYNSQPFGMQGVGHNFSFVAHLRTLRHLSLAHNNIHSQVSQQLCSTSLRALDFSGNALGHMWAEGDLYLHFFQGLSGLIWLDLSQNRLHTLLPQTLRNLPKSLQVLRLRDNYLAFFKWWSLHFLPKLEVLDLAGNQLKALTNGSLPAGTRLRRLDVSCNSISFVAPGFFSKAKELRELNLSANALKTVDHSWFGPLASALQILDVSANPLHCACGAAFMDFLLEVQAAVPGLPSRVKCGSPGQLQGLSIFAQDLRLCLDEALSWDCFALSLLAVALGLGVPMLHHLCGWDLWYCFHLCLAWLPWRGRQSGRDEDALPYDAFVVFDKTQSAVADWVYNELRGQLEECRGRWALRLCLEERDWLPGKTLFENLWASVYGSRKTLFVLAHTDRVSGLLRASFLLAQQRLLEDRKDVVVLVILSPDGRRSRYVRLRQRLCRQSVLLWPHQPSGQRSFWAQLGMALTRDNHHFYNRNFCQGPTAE
As to the kind of experiment: TLR9 inhibition reporter assay (HEK-Blue cells, SEAP reporter, ODN2006 stimulation). Particulars: HEK-Blue cells overexpressing human TLR9, SEAP reporter, ODN2006 5 nM. An outline of the steps: (§1)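 Screening used HEK-Blue cells overexpressing one human TLR (7, 8 or 9) and an IFN-β minimal promoter–NF-κB/AP-1 SEAP construct. Stimulation lasted 22 h at 37 °C with receptor-specific agonist: gardiquimod, R848 or ODN2006 at 7.5 μM, 15.9 μM and 5 nM.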
On the technique in general: Reporter assays use an easily measured gene product as a stand-in for the process of interest.

In assay [2] the target is T2, human TLR8 (Homo sapiens, UniProt Q9NR97).
T2 construct: host or cells: HEK-Blue cells
T2 sequence (Q9NR97 27-1041): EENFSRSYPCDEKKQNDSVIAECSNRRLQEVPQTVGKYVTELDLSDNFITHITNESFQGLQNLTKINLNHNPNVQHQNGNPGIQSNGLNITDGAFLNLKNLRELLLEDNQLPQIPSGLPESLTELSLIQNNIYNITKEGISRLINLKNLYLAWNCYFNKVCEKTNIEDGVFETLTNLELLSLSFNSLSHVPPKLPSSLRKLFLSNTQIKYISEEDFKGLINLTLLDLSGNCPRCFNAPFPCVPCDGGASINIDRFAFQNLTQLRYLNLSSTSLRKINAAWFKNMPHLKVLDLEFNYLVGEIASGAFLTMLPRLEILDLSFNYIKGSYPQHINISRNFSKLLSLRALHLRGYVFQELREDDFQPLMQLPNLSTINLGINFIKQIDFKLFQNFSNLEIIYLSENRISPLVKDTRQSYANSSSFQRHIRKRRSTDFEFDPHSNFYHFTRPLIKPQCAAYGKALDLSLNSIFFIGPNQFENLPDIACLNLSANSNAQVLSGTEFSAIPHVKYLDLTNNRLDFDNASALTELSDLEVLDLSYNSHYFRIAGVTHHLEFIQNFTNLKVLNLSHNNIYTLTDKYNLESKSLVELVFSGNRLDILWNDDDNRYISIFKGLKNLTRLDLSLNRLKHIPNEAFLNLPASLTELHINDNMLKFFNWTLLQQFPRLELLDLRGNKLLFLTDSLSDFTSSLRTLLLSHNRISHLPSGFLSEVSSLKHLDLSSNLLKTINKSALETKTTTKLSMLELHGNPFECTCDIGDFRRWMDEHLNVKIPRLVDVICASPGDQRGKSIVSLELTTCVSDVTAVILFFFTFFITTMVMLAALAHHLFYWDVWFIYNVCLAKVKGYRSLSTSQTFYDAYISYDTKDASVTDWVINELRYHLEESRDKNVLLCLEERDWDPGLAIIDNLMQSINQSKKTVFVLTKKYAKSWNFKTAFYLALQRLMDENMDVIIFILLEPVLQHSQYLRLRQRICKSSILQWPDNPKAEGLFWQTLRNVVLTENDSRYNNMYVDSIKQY
Description: TLR8 inhibition reporter assay (HEK-Blue cells, SEAP reporter, R848 stimulation). Particulars: HEK-Blue cells overexpressing human TLR8, SEAP reporter, R848 15.9 μM; read-out: TLR8 IC50. An outline of the steps: as §1

Assay [3] addresses T3, human TLR7 (Homo sapiens, UniProt Q9NYK1).
T3 construct: host or cells: HEK-Blue cells
T3 sequence (Q9NYK1 27-1049): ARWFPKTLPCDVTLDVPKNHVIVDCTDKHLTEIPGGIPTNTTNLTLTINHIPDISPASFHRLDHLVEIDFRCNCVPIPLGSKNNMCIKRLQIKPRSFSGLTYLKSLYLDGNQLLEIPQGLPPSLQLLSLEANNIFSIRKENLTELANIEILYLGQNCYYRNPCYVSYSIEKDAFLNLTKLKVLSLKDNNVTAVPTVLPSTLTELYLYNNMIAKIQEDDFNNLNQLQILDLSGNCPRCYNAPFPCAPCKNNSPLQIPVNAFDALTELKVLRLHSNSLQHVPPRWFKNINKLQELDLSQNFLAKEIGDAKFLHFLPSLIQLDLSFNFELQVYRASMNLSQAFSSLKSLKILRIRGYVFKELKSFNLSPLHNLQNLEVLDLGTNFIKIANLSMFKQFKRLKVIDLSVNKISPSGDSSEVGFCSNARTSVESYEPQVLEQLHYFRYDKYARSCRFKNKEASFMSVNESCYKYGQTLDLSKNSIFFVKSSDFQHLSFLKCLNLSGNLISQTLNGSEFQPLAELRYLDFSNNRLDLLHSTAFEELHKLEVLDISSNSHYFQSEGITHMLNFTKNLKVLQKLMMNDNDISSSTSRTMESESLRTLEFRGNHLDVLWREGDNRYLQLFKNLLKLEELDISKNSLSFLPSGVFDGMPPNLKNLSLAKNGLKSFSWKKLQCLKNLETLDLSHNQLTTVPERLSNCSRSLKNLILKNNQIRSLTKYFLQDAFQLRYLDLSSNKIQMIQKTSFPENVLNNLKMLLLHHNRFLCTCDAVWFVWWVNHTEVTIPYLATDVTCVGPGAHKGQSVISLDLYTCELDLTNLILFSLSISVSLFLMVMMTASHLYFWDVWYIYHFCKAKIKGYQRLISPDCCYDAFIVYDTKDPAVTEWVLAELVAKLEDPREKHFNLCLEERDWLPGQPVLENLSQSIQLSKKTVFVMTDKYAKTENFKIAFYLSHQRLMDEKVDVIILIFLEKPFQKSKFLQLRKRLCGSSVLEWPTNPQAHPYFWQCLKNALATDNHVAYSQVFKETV
Description: TLR7 inhibition reporter assay (HEK-Blue cells, SEAP reporter, gardiquimod stimulation). To be noted: HEK-Blue cells overexpressing human TLR7, SEAP reporter, gardiquimod 7.5 μM; read-out: TLR7 IC50. The procedure, abridged:
as §1

Regarding `CNCC(=O)N1C[C@H](C)N(c2nc3c(C(C)C)c(-c4cn5ncnc5c(C)c4C)[nH]c3s2)C[C@H]1C` [Example 340, 1-((2R,5S)-4-(5-(7,8-dimethyl-[1,2,4]triazolo[1,5-a]pyridin-6-yl)-6-isopropyl-4H-pyrrolo[3,2-d]thiazol-2-yl)-2,5-dimethylpiperazin-1-yl)-2-(methylamino)ethan-1-one], the IC50 (in general, the concentration that inhibits the measured activity by half) came out at 5.22 µM in assay [1], 0.00338 µM in assay [2] and 0.00464 µM in assay [3].

In the case of `Cc1c(-c2[nH]c3sc(N4C[C@@H](C)N(C(=O)CN(C)C)C[C@@H]4C)nc3c2C(C)C)cn2ncnc2c1C` [Example 341, 1-((2R,5S)-4-(5-(7,8-dimethyl-[1,2,4]triazolo[1,5-a]pyridin-6-yl)-6-isopropyl-4H-pyrrolo[3,2-d]thiazol-2-yl)-2,5-dimethylpiperazin-1-yl)-2-(dimethylamino) ethan-1-one], the half-maximal inhibitory concentration (IC50) in assay [1] was 16.5 µM; in assay [2], 0.009 µM; in assay [3], 0.00786 µM.

In the case of `Cc1c(-c2[nH]c3sc(N4CCN(C(=O)CN(C)C)C[C@@H]4C)nc3c2C(C)C)cn2ncnc2c1C` [Example 346, (S)-1-(4-(5-(7,8-dimethyl-[1,2,4]triazolo[1,5-a]pyridin-6-yl)-6-isopropyl-4H-pyrrolo[3,2-d]thiazol-2-yl)-3-methylpiperazin-1-yl)-2-(dimethylamino)ethan-1-one], the IC50 was 19.2 µM in assay [1], 0.00794 µM in assay [2] and 0.0063 µM in assay [3].

As to `Cc1c(-c2[nH]c3sc(N4CCN(C5CCOCC5)C[C@@H]4C)nc3c2C(C)C)cn2ncnc2c1C` [Example 350, (S)-5-(7,8-dimethyl-[1,2,4]triazolo[1,5-a]pyridin-6-yl)-6-isopropyl-2-(2-methyl-4-(tetrahydro-2H-pyran-4-yl)piperazin-1-yl)-4H-pyrrolo[3,2-d]thiazole], the half-inhibitory concentration (IC50) in assay [1] was 21.7 µM; in assay [2], 0.00012 µM; in assay [3], 0.00811 µM.

As to `Cc1c(-c2[nH]c3sc(N4CCN(C(C)C)C[C@@H]4C)nc3c2C(C)C)cn2ncnc2c1C` [Example 351, (S)-5-(7,8-dimethyl-[1,2,4]triazolo[1,5-a]pyridin-6-yl)-6-isopropyl-2-(4-isopropyl-2-methylpiperazin-1-yl)-4H-pyrrolo[3,2-d]thiazole], the IC50 in assay [1] stood at 19.8 µM; in assay [2], 0.00098 µM; in assay [3], 0.00823 µM.

On to `Cc1c(-c2[nH]c3sc(N4CCN(CC5CC5)C[C@@H]4C)nc3c2C(C)C)cn2ncnc2c1C` [Example 352, (S)-2-(4-(cyclopropylmethyl)-2-methylpiperazin-1-yl)-5-(7,8-dimethyl-[1,2,4]triazolo[1,5-a]pyridin-6-yl)-6-isopropyl-4H-pyrrolo[3,2-d]thiazole], for which the IC50 was found to be 24.5 µM in assay [1], 0.00109 µM in assay [2] and 0.0144 µM in assay [3].

In the case of `Cc1cc(-c2[nH]c3sc(N4CCN(C(C)C)C[C@H]4C)nc3c2C(C)C)cn2ncnc12` [Example 366, (R)-6-isopropyl-2-(4-isopropyl-2-methylpiperazin-1-yl)-5-(8-methyl-[1,2,4]triazolo[1,5-a]pyridin-6-yl)-4H-pyrrolo[3,2-d] thiazole], the concentration for half-maximal inhibition (IC50) in assay [1] is 6.26 µM; in assay [2] it was over 3.13 µM; in assay [3], over 3.13 µM.

Take `Cc1c(-c2[nH]c3sc(C(=O)NCCN4CCCC4)nc3c2C(C)C)cn2ncnc2c1C` [Example 370, 5-(7,8-dimethyl-[1,2,4]triazolo[1,5-a]pyridin-6-yl)-6-isopropyl-N-(2-(pyrrolidin-1-yl)ethyl)-4H-pyrrolo[3,2-d]thiazole-2-carboxamide]: the IC50 in assay [1] was 6.44 µM; in assay [2], 0.00138 µM; in assay [3], 0.0124 µM.

Consider `Cc1c(-c2[nH]c3sc(C(=O)NCCN(C)C)nc3c2C(C)C)cn2ncnc2c1C` [Example 372, 5-(7,8-dimethyl-[1,2,4]triazolo[1,5-a]pyridin-6-yl)-N-(2-(dimethylamino)ethyl)-6-isopropyl-4H-pyrrolo[3,2-d]thiazole-2-carboxamide], for which the IC50 in assay [1] came to 8.88 µM; in assay [2], 0.00249 µM; in assay [3], 0.0107 µM.

Regarding `Cc1c(-c2[nH]c3sc(C(=O)N4CCS(=O)(=O)CC4)nc3c2C(C)C)cn2ncnc2c1C` [Example 373, (5-(7,8-dimethyl-[1,2,4]triazolo[1,5-a]pyridin-6-yl)-6-isopropyl-4H-pyrrolo[3,2-d]thiazol-2-yl)(1,1-dioxidothiomorpholino)methanone], the half-inhibitory concentration (IC50) was found to be 42.1 µM in assay [1], 0.0345 µM in assay [2] and 0.0819 µM in assay [3].

For `Cc1c(-c2[nH]c3sc(C(=O)NCC(C)(C)N4CCOCC4)nc3c2C(C)C)cn2ncnc2c1C` [Example 374, 5-(7,8-dimethyl-[1,2,4]triazolo[1,5-a]pyridin-6-yl)-6-isopropyl-N-(2-methyl-2-morpholinopropyl)-4H-pyrrolo[3,2-d]thiazole-2-carboxamide], the concentration for half-maximal inhibition (IC50) in assay [1] worked out at 41.5 µM; in assay [2] it was 0.00933 µM; in assay [3], 0.0117 µM.
